According to patent publication US9913857B2, “Composition and methods of screening” (OPTIBIOTIX LIMITED, priority 2013, dated 2018):

Experiments:
Eubacteria = assay: Anaerobic cultures, gut bacterial groups by fluorescent in situ hybridisation: Eubacteria; format: cell-based; set-up: Eubacteria 24: unit not given here; conditions: for Eubacteria 24: 24 hours, anaerobic culture, inoculum 8.06; for Eubacteria 24 hr % change: 24 hr vs inoculum
Description: (§1) In these experiments, anaerobic cultures were tested to evaluate the in vitro utilisation of a novel Lactobacillus reuteri galactooligosaccharide by monitoring the populations of gut bacterial groups at 24 hours using fluorescent in situ hybridisation, and short-chain fatty acid […]. Fructooligosaccharides (FOS), melibiose and raffinose were used as reference carbohydrates.

Lactobacilli = assay: Anaerobic cultures, gut bacterial groups by fluorescent in situ hybridisation: Lactobacilli; format: cell-based; set-up: Lactobacilli 24: unit not given here; conditions: for Lactobacilli 24: 24 hours, anaerobic culture, inoculum 7.15; for Lactobacilli 24 hr % change: 24 hr vs inoculum
Description: as §1

Clostridia = assay: Anaerobic cultures, gut bacterial groups by fluorescent in situ hybridisation: Clostridia; format: cell-based; set-up: Clostridia 24: unit not given here; conditions: for Clostridia 24: 24 hours, anaerobic culture, inoculum 7.55; for Clostridia 24 hr % change: 24 hr vs inoculum
Description: as §1

Total count = assay: Anaerobic cultures, gut bacterial groups by fluorescent in situ hybridisation: total count; format: cell-based; set-up: Total count 24: unit not given here; conditions: for Total count 24: 24 hours, anaerobic culture, inoculum 8.84; for Total count 24 hr % change: 24 hr vs inoculum
Description: as §1

Bifidobacteria = assay: Anaerobic cultures, gut bacterial groups by fluorescent in situ hybridisation: Bifidobacteria; format: cell-based; set-up: Bifidobacteria 24: unit not given here; conditions: for Bifidobacteria 24: 24 hours, anaerobic culture, inoculum 6.85; for Bifidobacteria 24 hr % change: 24 hr vs inoculum
Description: as §1

Bacteroides = assay: Anaerobic cultures, gut bacterial groups by fluorescent in situ hybridisation: Bacteroides; format: cell-based; set-up: Bacteroides 24: unit not given here; conditions: for Bacteroides 24: 24 hours, anaerobic culture, inoculum 7.98; for Bacteroides 24 hr % change: 24 hr vs inoculum
Description: as §1

E. coli = assay: Anaerobic cultures, gut bacterial groups by fluorescent in situ hybridisation: E. coli; format: cell-based; set-up: E. coli 24: unit not given here; conditions: for E. coli 24: 24 hours, anaerobic culture, inoculum 8.14; for E. coli 24 hr % change: 24 hr vs inoculum
Description: as §1

Lactobacilli strains = assay: Bacterial growth curve with lactose as growth medium; format: cell-based, Lactobacillus; conditions: around 13 hours, from approximately 6.5, L. plantarum, L. casei, L. salivarius, L. rhanmosus, L. delbrueckii
Description: Bacterial growth curve determination was undertaken by sampling cultures at 0 h, 3 h, 5 h, 8 and 24 h intervals using a 100 μL of dilution series of culture in 900 μL PBS. 20 μL of each series was spread onto a jar and with a negative control and growth assessed.
Bacterial count of several of the strains was assessed by using 0.1% lactose as the growth medium.
Bacterial count of several of the strains was assessed by using 5% lactose as the growth medium. FIGS. 2A-2G show the bacterial count over time using 5% lactose as a growth medium for L. plantarum, L. casei, L. salivarius, L. delbrueckii, L. rhanmosus, L. acidophilus and L. helveticus.

Q: With `OC[C@H]1O[C@H](OCC2O[C@@H](O)[C@H](O)[C@@H](O)[C@@H]2O)[C@H](O)[C@@H](O)[C@H]1O` (stereo partly drawn) [Melibiose, melibiose] as the compound, how does the “Eubacteria 24” value (Eubacteria) read?
A: 7.84

Q: And the “Eubacteria 24 hr % change” value (Eubacteria)?
A: 97%

Q: And the “Lactobacilli 24” value (Lactobacilli)?
A: 7.43

Q: And the “Lactobacilli 24 hr % change” value (Lactobacilli)?
A: 104%

Q: What about the “Clostridia 24” value (Clostridia) of the same compound?
A: 7.65

Q: What about the “Clostridia 24 hr % change” value (Clostridia) of the same compound?
A: 101%

Q: And the “Total count 24” value (Total count)?
A: 9.14

Q: What about the “Total count 24 hr % change” value (Total count) of the same compound?
A: 103%

Q: What about the “Bifidobacteria 24” value (Bifidobacteria) of the same compound?
A: 7.33

Q: What about the “Bifidobacteria 24 hr % change” value (Bifidobacteria) of the same compound?
A: 107%

Q: What about the “Bacteroides 24” value (Bacteroides) of the same compound?
A: 7.9

Q: What about the “Bacteroides 24 hr % change” value (Bacteroides) of the same compound?
A: 99%

Q: And the “E. coli 24” value (E. coli)?
A: 7.66

Q: What about the “E. coli 24 hr % change” value (E. coli) of the same compound?
A: 94%

Q: Which results are given for `OC[C@H]1O[C@H](OC[C@H]2O[C@H](O[C@]3(CO)O[C@H](CO)[C@@H](O)[C@@H]3O)[C@H](O)[C@@H](O)[C@@H]2O)[C@H](O)[C@@H](O)[C@H]1O` [Raffinose, raffinose]?
A: Eubacteria 24 (Eubacteria): 8.69; Eubacteria 24 hr % change (Eubacteria): 108%; Lactobacilli 24 (Lactobacilli): 7.45; Lactobacilli 24 hr % change (Lactobacilli): 104%; Clostridia 24 (Clostridia): 7.81; Clostridia 24 hr % change (Clostridia): 103%; Total count 24 (Total count): 9.19; Total count 24 hr % change (Total count): 104%; Bifidobacteria 24 (Bifidobacteria): 7.69; Bifidobacteria 24 hr % change (Bifidobacteria): 112%; Bacteroides 24 (Bacteroides): 8.08; Bacteroides 24 hr % change (Bacteroides): 101%; E. coli 24 (E. coli): 8.03; E. coli 24 hr % change (E. coli): 99%

Q: For `OC[C@H]1O[C@@H](O[C@H]2[C@H](O)[C@@H](O)C(O)O[C@@H]2CO)[C@H](O)[C@@H](O)[C@H]1O` (stereo partly drawn) [lactose], which bacterial count (Lactobacilli strains; 0.1% lactose as growth medium, L. fermentum) is on record?
A: over 9.5 log 10 CFU/ml

Q: And the bacterial count (Lactobacilli strains; 5% lactose as growth medium, L. acidophilus, L. helveticus)?
A: over 9.5 log 10 CFU/ml
